Assay results reported in PMC9501899 (Journal of the American Chemical Society, 2022).

How the values were obtained:
[1] = test system: Rab10-pThr73; test: Rab10 dephosphorylation in G2019S LRRK2 MEFs by Western blotting; type: cell-based, mouse
Experimental: (§1) These PROTACs were then biologically evaluated in mouse embryonic fibroblasts (MEFs) by Western blotting. Briefly, MEFs were treated with compounds at 33 nM and 1 μM for 4 h (Figure 2) and 24 h (Figure S2) separately, and the intracellular level of LRRK2, phosphorylated LRRK2 at Ser935, and phosphorylated Rab10 (pRab10) at Thr73 was determined. Rab10[5],[49] is one of the bona fide substrates of LRRK2, whose phosphorylation status is directly affected by the LRRK2 kinase activity and protein level. Phosphorylation of LRRK2 at Ser935 is a well-studied biomarker site used to assess the efficacy of type 1 LRRK2 inhibitors.[30]
(§2) Primary MEFs were generated as described in a previous study.[80] Briefly, the uterine horn was collected from adult female mice at day E12.5 and transferred to a 10 cm tissue culture dish containing cold PBS. Two forceps were used to tear the yolk sacs to isolate each embryo. Forceps were cleaned thoroughly with 70% ethanol between each embryo isolation. The embryos were culled, and a tissue piece was collected in a polymerase chain reaction (PCR) tube for genotyping. The red tissue of the embryo was removed, and the remainder was minced with a scalpel blade and incubated with a 7.5 mL trypsin–ethylenediaminetetraacetic acid (EDTA) solution for 10 min in a 37 °C, 5% CO2 tissue culture incubator. The dish was removed from the incubator and checked under a light microscope for single cells. Complete media (7.5 mL) was added to the trypsinized cells, and the cell suspension was transferred to a 15 mL Falcon tube and centrifuged at 1200 rpm for 5 min at room temperature. The trypsin was aspirated, the cell pellet was resuspended in a 5 mL fresh complete media, and the cell suspension was plated in a 60 mm tissue culture dish and incubated in a 37 °C, 5% CO2 tissue culture incubator. The MEFs at this stage were considered as passage 0 and were passaged and expanded for experimental use once the genotype was confirmed by allelic sequencing and immunoblotting. MEFs were cultured in Dulbecco’s modified Eagle’s medium (DMEM) containing 10% (v/v) fetal bovine serum (FBS), 2 mM L-glutamine, 100 U/mL penicillin, and 100 μg/mL streptomycin supplemented with 1× nonessential amino acids and 1 mM sodium pyruvate.
(§3) Culturing and passaging of adherent cell lines were carried out using an aseptic technique in CL1 or CL2 (for PBMC isolation) biological safety cabinets. All cells were incubated in a 37 °C incubator with 5% CO2. Cell lines were regularly tested for mycoplasma contamination. For Western blot assay, the cells were seeded in six-well plates. For immunoprecipitation of LRRK2, SH-SY5Y cells (cultured in DMEM-F12, supplemented with 15% (v/v) FBS, 100 U/mL penicillin and 100 μg/mL streptomycin, 1× nonessential amino acids, and 1 mM sodium pyruvate) were seeded in a 10 cm dish. All cells were treated with the indicated compounds such that the final concentration of DMSO was 0.1%. Following the treatment of cells with compounds at indicated concentrations and time periods, the media was removed and the cells were washed with PBS and lysed in a 100 μL ice-cold complete lysis buffer containing 50 mM tris–HCl pH 7.4, 1 mM EGTA, 10 mM 2-glycerophosphate, 50 mM sodium fluoride, 5 mM sodium pyrophosphate, 270 mM sucrose, supplemented with 1 μg/mL microcystin-LR, 1 mM sodium orthovanadate, complete EDTA-free protease inhibitor cocktail (Roche), and 1% (v/v) Triton X-100. The cells were immediately placed on ice and were scraped and collected into 1.5 mL Eppendorf tubes. Cell lysates were incubated on ice for 10 min prior to centrifugation at 15 000g at 4 °C for 15 min.

[2] = molecular target: T1, G2019S LRRK2 (Mus musculus, UniProt Q5S006, G2019S); test: LRRK2 degradation in G2019S LRRK2 MEFs by Western blotting; type: cell-based
T1 construct: endogenous in cells; host or cells: G2019S LRRK2 MEFs
Experimental: as §1, §2, §3

[3] = molecular target: T2, WT LRRK2 (Mus musculus, UniProt Q5S006); test: LRRK2 degradation in WT MEFs by Western blotting; type: cell-based; details: 4 h
T2 construct: endogenous in cells; host or cells: wild-type primary MEFs
Experimental: as §1, §2, §3

[4] = test system: Rab10-pThr73; test: Rab10 dephosphorylation in WT MEFs by Western blotting; type: cell-based, mouse; details: Mus musculus; 4 h, WT MEFs; read-out: EC50 WT-pRab10
Experimental: as §1, §2, §3

[5] = test system: LRRK2; test: Western blot screening of PROTACs in WT and G2019S LRRK2 MEFs; type: cell-based, mouse
Experimental: as §1, §2
Culturing and passaging of adherent cell lines were carried out using an aseptic technique in CL1 or CL2 (for PBMC isolation) biological safety cabinets. All cells were incubated in a 37 °C incubator with 5% CO2. Cell lines were regularly tested for mycoplasma contamination. For Western blot assay, the cells were seeded in six-well plates.

T1 sequence (Q5S006 whole entry G2019S): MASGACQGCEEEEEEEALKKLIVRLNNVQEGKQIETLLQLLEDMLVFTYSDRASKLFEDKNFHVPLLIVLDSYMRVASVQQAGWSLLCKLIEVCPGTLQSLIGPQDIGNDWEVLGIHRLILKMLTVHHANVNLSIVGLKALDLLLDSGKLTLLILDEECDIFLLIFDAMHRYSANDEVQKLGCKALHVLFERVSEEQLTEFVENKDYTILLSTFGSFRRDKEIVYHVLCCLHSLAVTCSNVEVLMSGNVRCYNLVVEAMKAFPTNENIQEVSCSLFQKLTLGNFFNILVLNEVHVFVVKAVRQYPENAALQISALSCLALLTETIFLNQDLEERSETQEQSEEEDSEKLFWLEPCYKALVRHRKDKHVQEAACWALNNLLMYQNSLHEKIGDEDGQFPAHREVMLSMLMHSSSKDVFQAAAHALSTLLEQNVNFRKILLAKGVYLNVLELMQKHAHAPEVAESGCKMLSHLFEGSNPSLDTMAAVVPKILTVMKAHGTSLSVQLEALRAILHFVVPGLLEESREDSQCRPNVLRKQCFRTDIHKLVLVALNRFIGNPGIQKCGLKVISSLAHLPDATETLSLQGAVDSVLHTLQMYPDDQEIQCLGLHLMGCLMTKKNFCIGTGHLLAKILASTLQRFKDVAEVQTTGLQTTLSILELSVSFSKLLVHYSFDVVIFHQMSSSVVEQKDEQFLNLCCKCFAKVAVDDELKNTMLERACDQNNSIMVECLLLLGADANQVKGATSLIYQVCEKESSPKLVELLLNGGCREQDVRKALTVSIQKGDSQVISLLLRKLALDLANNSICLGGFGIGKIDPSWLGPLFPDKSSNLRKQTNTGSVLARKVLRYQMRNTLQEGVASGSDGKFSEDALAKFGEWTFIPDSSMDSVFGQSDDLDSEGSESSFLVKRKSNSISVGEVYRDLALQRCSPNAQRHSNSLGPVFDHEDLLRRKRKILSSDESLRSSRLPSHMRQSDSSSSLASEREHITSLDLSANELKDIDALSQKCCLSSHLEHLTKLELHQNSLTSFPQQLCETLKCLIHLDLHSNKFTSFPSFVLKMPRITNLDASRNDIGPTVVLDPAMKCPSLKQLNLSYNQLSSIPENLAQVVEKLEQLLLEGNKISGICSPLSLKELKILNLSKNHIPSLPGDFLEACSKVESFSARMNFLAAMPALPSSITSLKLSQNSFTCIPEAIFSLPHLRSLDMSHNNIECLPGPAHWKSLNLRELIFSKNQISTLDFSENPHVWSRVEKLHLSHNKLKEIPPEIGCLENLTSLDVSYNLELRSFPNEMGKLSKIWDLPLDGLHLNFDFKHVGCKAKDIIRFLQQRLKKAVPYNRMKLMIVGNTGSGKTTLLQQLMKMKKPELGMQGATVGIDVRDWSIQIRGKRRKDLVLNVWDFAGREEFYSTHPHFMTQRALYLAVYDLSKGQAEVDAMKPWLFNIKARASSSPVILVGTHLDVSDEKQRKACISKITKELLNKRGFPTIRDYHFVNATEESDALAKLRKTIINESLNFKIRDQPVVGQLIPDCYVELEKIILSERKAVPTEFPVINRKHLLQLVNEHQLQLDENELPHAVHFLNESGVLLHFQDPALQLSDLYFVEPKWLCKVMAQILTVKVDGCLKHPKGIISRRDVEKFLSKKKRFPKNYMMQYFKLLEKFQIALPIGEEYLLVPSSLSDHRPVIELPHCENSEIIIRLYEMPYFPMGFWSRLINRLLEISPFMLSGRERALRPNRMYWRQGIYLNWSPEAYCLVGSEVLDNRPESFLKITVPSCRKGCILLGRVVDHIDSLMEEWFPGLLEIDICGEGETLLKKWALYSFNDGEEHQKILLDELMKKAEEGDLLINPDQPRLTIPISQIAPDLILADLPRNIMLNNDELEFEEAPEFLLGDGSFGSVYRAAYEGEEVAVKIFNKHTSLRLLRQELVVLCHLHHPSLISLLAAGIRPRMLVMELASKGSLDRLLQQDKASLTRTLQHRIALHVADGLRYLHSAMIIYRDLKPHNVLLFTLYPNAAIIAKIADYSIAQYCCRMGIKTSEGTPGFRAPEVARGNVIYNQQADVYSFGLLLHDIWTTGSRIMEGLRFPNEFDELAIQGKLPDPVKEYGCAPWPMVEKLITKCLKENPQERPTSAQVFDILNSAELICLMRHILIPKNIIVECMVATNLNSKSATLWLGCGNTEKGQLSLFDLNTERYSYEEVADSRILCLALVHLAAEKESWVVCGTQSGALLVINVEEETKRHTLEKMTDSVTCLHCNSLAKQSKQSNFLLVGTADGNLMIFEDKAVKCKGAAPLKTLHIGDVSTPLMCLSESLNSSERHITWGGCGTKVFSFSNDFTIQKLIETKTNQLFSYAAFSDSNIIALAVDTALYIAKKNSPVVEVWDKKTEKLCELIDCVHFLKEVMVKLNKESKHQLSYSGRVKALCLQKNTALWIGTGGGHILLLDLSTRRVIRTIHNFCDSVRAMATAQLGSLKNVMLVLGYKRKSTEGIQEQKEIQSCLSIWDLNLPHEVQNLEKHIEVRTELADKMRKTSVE
T2 sequence (Q5S006 whole entry): as the sequence (Q5S006 whole entry G2019S) above, with S2019G counted along it

CNc1nc(Nc2ccc(C(=O)N3CCOCC3)cc2OC)ncc1Cl [HG-10-102-01, reference compound]
EC50 ([1]; Mus musculus, 4 h, G2019S LRRK2 MEFs, read-out: EC50 G2019S pRab10): 110 nM
degradation of G2019S LRRK2 (in words) ([2]; 4 h): did not degrade LRRK2
degradation of WT LRRK2 (in words) [3]: did not degrade LRRK2
EC50 [4]: 214 nM

CNc1nc(Nc2ccc(C(=O)N3CCN(CCCOc4cc(-c5scnc5C)ccc4CNC(=O)[C@@H]4C[C@@H](O)CN4C(=O)[C@@H](NC(=O)C4(F)CC4)C(C)(C)C)CC3)cc2OC)ncc1Cl [SD13]
G2019S LRRK2 degraded ([2]; 33 nM/4 h): 60%
G2019S LRRK2 degraded ([2]; 33 nM/24 h): 68%

CNc1nc(Nc2ccc(C(=O)N3CCN(Cc4ccc(CSC(C)(C)C(NC(=O)C5(F)CC5)C(=O)N5CC(O)CC5C(=O)NCc5ccc(-c6scnc6C)cc5)cc4)CC3)cc2OC)ncc1Cl (stereo not drawn) [SD100]
pRab10 dephosphorylated ([1]; 1 µM): 75–90%
degradation of LRRK2 ([5]; 0.033 µM): < 40%
degradation of LRRK2 (in words) ([5]; 33 nM/4 h, WT and G2019S LRRK2 MEFs): little to no degradation
